Data reported in ChEMBL document CHEMBL1275354, “Anticonvulsant activity of 2,4(1H)-diarylimidazoles in mice and rats acute seizure models” (Bioorg Med Chem, 2010).
Activity calls are given as the source filed them. The rule behind the calls is not given here.

Legend:
Mus musculus [1] = test: Anticonvulsant activity in albino CF1 mouse assessed as protection against maximal electroshock-induced seizures at 100 mg/kg, ip after 0.5 hrs; type: functional, organism-based; parameters: dose 100 mg/kg
Mus musculus [2] = test: Neurotoxicity in albino CF1 mouse assessed as minimal motor impairment at 100 mg/kg, ip after 0.5 hrs by rotarod test; type: toxicity, organism-based; parameters: dose 100 mg/kg, route intraperitoneal; settings: in vivo
Mus musculus [3] = test: Anticonvulsant activity in albino CF1 mouse assessed as protection against maximal electroshock-induced seizures at 100 mg/kg, ip after 2 hrs; type: functional, organism-based; parameters: dose 100 mg/kg
Mus musculus [4] = species: Mus musculus; test: Protective index, ratio of TD50 for albino CF1 mouse by rotarod test to ED50 for albino CF1 mouse by maximal electroshock seizures test; type: functional
Mus musculus [5] = test: Neurotoxicity in albino CF1 mouse assessed as minimal motor impairment at 100 mg/kg, ip after 1 hr by rotarod test; type: toxicity, organism-based; parameters: dose 100 mg/kg, route intraperitoneal; settings: in vivo
Mus musculus [6] = test: Anticonvulsant activity in albino CF1 mouse assessed as protection against subcutaneous metrazole-induced seizures at 300 mg/kg, ip after 0.5 hrs; type: functional, organism-based; parameters: dose 300 mg/kg
Mus musculus [7] = test: Anticonvulsant activity against maximal electroshock-induced seizures in ip dosed albino CF1 mouse assessed as minimum effective dose after 4 hrs; type: functional; settings: read-out: MED
Mus musculus [8] = test: Neurotoxicity in albino CF1 mouse assessed as minimal motor impairment at 100 mg/kg, ip after 2 hrs by rotarod test; type: toxicity, organism-based; parameters: dose 100 mg/kg, route intraperitoneal; settings: in vivo
Mus musculus [9] = test: Anticonvulsant activity in albino CF1 mouse assessed as protection against maximal electroshock-induced seizures at 300 mg/kg, ip after 4 hrs; type: functional, organism-based; parameters: dose 300 mg/kg
Rattus norvegicus [10] = test: Anticonvulsant activity in albino Sprague-Dawley rat assessed as protection against maximal electroshock-induced seizures at 30 mg/kg, po after 0.25 hrs; type: functional, organism-based; parameters: dose 30 mg/kg
Mus musculus [11] = test: Anticonvulsant activity in albino CF1 mouse assessed as protection against maximal electroshock-induced seizures at 30 mg/kg, ip after 0.5 hrs; type: functional, organism-based; parameters: dose 30 mg/kg
Mus musculus [12] = test: Neurotoxicity in albino CF1 mouse assessed as minimal motor impairment at 30 to 300 mg/kg, ip after 0.5 hrs by rotarod test; settings: in vivo
Mus musculus [13] = species: Mus musculus; test: Protective index, ratio of TD50 for albino CF1 mouse after 1 hr by rotarod test to ED50 for albino CF1 mouse by maximal electroshock seizures test after 1 hr; type: functional
Mus musculus [14] = test: Anticonvulsant activity against subcutaneous metrazole-induced seizures in ip dosed albino CF1 mouse assessed as minimum effective dose after 4 hrs; type: functional; settings: albino CF1, 4 h, read-out: MED
Mus musculus [15] = test: Anticonvulsant activity in albino CF1 mouse assessed as protection against maximal electroshock-induced seizures at 300 mg/kg, ip after 0.5 hrs; type: functional, organism-based; parameters: dose 300 mg/kg
Mus musculus [16] = test: Anticonvulsant activity in albino CF1 mouse assessed as protection against subcutaneous metrazole-induced seizures at 150 mg/kg, ip after 1 hr; type: functional, organism-based; parameters: dose 150 mg/kg
Mus musculus [17] = test: Neurotoxicity in albino CF1 mouse assessed as minimal motor impairment at 100 mg/kg, ip after 4 hrs by rotarod test; type: toxicity, organism-based; parameters: dose 100 mg/kg, route intraperitoneal; settings: in vivo
[18] = biological target: Sodium channel protein type 2 subunit alpha (Homo sapiens, UniProt Q99250); test: Inhibition of human NaV1.2 expressed in HEK cells at -60 mV holding potential by patch clamp recording technique; type: cell-based, HEK293
Chain of Sodium channel protein type 2 subunit alpha (Q99250 whole entry): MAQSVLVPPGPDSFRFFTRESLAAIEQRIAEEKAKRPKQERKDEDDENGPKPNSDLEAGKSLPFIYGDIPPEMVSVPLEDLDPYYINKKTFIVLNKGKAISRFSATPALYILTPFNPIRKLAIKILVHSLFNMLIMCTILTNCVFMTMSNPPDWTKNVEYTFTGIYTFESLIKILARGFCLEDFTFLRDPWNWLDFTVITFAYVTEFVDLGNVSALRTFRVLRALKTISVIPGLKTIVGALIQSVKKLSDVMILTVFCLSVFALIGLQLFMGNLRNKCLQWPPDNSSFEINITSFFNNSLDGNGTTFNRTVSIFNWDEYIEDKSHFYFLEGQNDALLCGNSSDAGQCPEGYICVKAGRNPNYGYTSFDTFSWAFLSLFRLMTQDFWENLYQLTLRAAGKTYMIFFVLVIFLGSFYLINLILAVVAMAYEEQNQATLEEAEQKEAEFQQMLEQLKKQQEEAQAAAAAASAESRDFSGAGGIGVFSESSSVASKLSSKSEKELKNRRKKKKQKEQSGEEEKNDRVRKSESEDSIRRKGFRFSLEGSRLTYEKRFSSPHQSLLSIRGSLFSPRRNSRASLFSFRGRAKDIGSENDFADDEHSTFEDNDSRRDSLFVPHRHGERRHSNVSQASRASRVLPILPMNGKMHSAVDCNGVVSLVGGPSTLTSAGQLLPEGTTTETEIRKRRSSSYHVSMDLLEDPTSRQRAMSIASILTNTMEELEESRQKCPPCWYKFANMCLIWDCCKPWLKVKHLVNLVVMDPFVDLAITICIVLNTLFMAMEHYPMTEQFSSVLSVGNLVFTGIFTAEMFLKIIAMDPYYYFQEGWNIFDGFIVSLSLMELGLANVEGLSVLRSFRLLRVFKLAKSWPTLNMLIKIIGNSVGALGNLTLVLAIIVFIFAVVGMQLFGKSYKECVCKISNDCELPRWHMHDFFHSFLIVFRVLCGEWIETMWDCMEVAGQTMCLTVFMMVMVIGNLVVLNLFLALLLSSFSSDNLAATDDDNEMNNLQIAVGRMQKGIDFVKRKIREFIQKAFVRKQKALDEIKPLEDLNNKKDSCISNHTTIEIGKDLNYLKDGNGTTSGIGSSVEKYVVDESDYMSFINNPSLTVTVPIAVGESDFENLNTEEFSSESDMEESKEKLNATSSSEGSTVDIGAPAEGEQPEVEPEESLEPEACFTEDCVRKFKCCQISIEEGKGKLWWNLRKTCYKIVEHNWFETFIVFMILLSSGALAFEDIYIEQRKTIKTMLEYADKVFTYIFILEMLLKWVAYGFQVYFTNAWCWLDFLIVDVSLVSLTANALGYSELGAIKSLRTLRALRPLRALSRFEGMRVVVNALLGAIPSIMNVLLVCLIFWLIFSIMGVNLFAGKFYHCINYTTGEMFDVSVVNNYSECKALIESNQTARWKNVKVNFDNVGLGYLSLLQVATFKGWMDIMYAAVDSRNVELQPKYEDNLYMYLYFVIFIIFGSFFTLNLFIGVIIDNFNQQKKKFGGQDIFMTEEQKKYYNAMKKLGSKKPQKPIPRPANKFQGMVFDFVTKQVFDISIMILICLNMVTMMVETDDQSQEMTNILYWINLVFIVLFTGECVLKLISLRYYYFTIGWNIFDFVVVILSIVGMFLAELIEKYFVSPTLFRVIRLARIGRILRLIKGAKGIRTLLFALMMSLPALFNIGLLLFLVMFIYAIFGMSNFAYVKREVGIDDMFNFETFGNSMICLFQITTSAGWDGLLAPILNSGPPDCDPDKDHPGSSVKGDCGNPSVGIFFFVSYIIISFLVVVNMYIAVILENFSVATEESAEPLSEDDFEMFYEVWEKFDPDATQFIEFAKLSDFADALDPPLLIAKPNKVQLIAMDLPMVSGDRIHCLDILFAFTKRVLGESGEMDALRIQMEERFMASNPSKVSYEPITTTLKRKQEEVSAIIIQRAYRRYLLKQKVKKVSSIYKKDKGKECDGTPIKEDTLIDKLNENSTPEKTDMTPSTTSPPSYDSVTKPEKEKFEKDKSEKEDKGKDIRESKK

Rattus norvegicus [19] = test: Anticonvulsant activity in albino Sprague-Dawley rat assessed as protection against maximal electroshock-induced seizures at 30 mg/kg, po after 0.5 hrs; type: functional, organism-based; parameters: dose 30 mg/kg
Mus musculus [20] = test: Anticonvulsant activity in albino CF1 mouse assessed as protection against subcutaneous metrazole-induced seizures at 75 mg/kg, ip after 1 hr; type: functional, organism-based; parameters: dose 75 mg/kg
Mus musculus [21] = test: Anticonvulsant activity against maximal electroshock-induced seizures in ip dosed albino CF1 mouse assessed as minimum effective dose after 0.5 hrs; type: functional; settings: read-out: MED
Rattus norvegicus [22] = test: Anticonvulsant activity in albino Sprague-Dawley rat assessed as protection against maximal electroshock-induced seizures at 30 mg/kg, po after 1 hr; type: functional, organism-based; parameters: dose 30 mg/kg
Mus musculus [23] = test: Anticonvulsant activity in albino CF1 mouse assessed as protection against subcutaneous metrazole-induced seizures at 30 mg/kg, ip after 4 hrs; type: functional, organism-based; parameters: dose 30 mg/kg
Mus musculus [24] = test: Anticonvulsant activity in albino CF1 mouse assessed as protection against maximal electroshock-induced seizures at 100 mg/kg, ip after 4 hrs; type: functional, organism-based; parameters: dose 100 mg/kg
Mus musculus [25] = test: Neurotoxicity in ip dosed albino CF1 mouse assessed as minimum dose required to cause toxicity after 0.5 hrs by rotarod test; type: organism-based; settings: in vivo
Mus musculus [26] = test: Neurotoxicity in albino CF1 mouse assessed as minimal motor impairment at 300 mg/kg, ip after 4 hrs by rotarod test; type: toxicity, organism-based; parameters: dose 300 mg/kg, route intraperitoneal; settings: in vivo
[27] = Neurotoxicity in ip dosed albino CF1 mouse assessed as minimal motor impairment after 1 hr by rotarod test; type: toxicity, organism-based; settings: in vivo
Mus musculus [28] = test: Anticonvulsant activity in albino CF1 mouse assessed as protection against subcutaneous metrazole-induced seizures at 100 mg/kg, ip after 0.5 hrs; type: functional, organism-based; parameters: dose 100 mg/kg
Rattus norvegicus [29] = test: Anticonvulsant activity in albino Sprague-Dawley rat assessed as protection against maximal electroshock-induced seizures at 30 mg/kg, po after 2 hrs; type: functional, organism-based; parameters: dose 30 mg/kg
Mus musculus [30] = test: Anticonvulsant activity ip dosed albino CF1 mouse assessed as protection against maximal electroshock-induced seizures after 1 hr; type: functional
Rattus norvegicus [31] = test: Neurotoxicity in albino Sprague-Dawley rat assessed as minimal motor impairment at 30 mg/kg, po by rotarod test; type: toxicity, organism-based; parameters: dose 30 mg/kg, route oral; settings: in vivo
Mus musculus [32] = test: Neurotoxicity in albino CF1 mouse assessed as minimal motor impairment at 140 mg/kg, ip after 1 hr by rotarod test; type: toxicity, organism-based; parameters: dose 140 mg/kg, route intraperitoneal; settings: in vivo
Mus musculus [33] = test: Anticonvulsant activity in albino CF1 mouse assessed as protection against maximal electroshock-induced seizures at 60 mg/kg, ip after 1 hr; type: functional, organism-based; parameters: dose 60 mg/kg
Mus musculus [34] = test: Neurotoxicity in albino CF1 mouse assessed as minimal motor impairment at 30 to 300 mg/kg, po after 4 hrs by rotarod test; type: toxicity, organism-based; parameters: dose 30-300 mg/kg, route oral; settings: in vivo
Rattus norvegicus [35] = test: Anticonvulsant activity in albino Sprague-Dawley rat assessed as protection against maximal electroshock-induced seizures at 30 mg/kg, po after 4 hrs; type: functional, organism-based; parameters: dose 30 mg/kg
Mus musculus [36] = test: Neurotoxicity in albino CF1 mouse assessed as minimal motor impairment at 100 mg/kg, ip after 0.25 hrs by rotarod test; type: toxicity, organism-based; parameters: dose 100 mg/kg, route intraperitoneal; settings: in vivo
Mus musculus [37] = test: Anticonvulsant activity in albino CF1 mouse assessed as protection against subcutaneous metrazole-induced seizures at 300 mg/kg, ip after 4 hrs; type: functional, organism-based; parameters: dose 300 mg/kg
Mus musculus [38] = test: Anticonvulsant activity in albino CF1 mouse assessed as protection against subcutaneous metrazole-induced seizures at 30 mg/kg, ip after 0.5 hrs; type: functional, organism-based; parameters: dose 30 mg/kg
Mus musculus [39] = test: Anticonvulsant activity ip dosed albino CF1 mouse assessed as protection against maximal electroshock-induced seizures after 0.25 hrs; type: functional
Mus musculus [40] = test: Neurotoxicity in ip dosed albino CF1 mouse assessed as minimum dose required to cause toxicity after 4 hrs by rotarod test; type: organism-based; settings: in vivo
Mus musculus [41] = test: Neurotoxicity in albino CF1 mouse assessed as minimal motor impairment at 300 mg/kg, ip after 0.5 hrs by rotarod test; type: toxicity, organism-based; parameters: dose 300 mg/kg, route intraperitoneal; settings: in vivo
Mus musculus [42] = test: Anticonvulsant activity in albino CF1 mouse assessed as protection against subcutaneous metrazole-induced seizures at 100 mg/kg, ip after 4 hrs; type: functional, organism-based; parameters: dose 100 mg/kg
Mus musculus [43] = test: Anticonvulsant activity in albino CF1 mouse assessed as protection against subcutaneous metrazole-induced seizures at 300 mg/kg, ip after 1 hr; type: functional, organism-based; parameters: dose 300 mg/kg
Mus musculus [44] = test: Anticonvulsant activity in albino CF1 mouse assessed as protection against maximal electroshock-induced seizures at 30 mg/kg, ip after 4 hrs; type: functional, organism-based; parameters: dose 30 mg/kg
Mus musculus [45] = test: Neurotoxicity in albino CF1 mouse assessed as minimal motor impairment at 30 mg/kg, ip after 4 hrs by rotarod test; type: toxicity, organism-based; parameters: dose 30 mg/kg, route intraperitoneal; settings: in vivo
Mus musculus [46] = test: Neurotoxicity in albino CF1 mouse assessed as minimal motor impairment at 30 mg/kg, ip after 0.5 hrs by rotarod test; type: toxicity, organism-based; parameters: dose 30 mg/kg, route intraperitoneal; settings: in vivo

Q: With FC(F)(F)c1ccc(-c2nc(-c3ccccc3)c[nH]2)cc1 as the molecule, how does the Activity (Mus musculus [1]) read?
A: inactive

Q: What about the Activity (Mus musculus [2]) of the same molecule?
A: Non-toxic

Q: What about the Activity (Mus musculus [3]) of the same molecule?
A: inactive

Q: And the PI (Mus musculus [4])?
A: >3.8

Q: And the Activity (Mus musculus [5])?
A: Non-toxic

Q: And the Activity (Mus musculus [6])?
A: inactive

Q: And the minimal effective dose (Mus musculus [7])?
A: 100 mg/kg

Q: And the Activity (Mus musculus [8])?
A: Non-toxic

Q: And the Activity (Mus musculus [9])?
A: Active

Q: And the Activity (Rattus norvegicus [10])?
A: inactive

Q: And the Activity (Mus musculus [11])?
A: inactive

Q: What about the Activity (Mus musculus [12]) of the same molecule?
A: Non-toxic

Q: And the PI (Mus musculus [13])?
A: > 3.8

Q: What about the minimal effective dose (Mus musculus [14]) of the same molecule?
A: > 300 mg/kg

Q: What about the Activity (Mus musculus [15]) of the same molecule?
A: Active

Q: What about the Activity (Mus musculus [16]) of the same molecule?
A: inactive

Q: And the Activity (Mus musculus [17])?
A: Non-toxic

Q: What about the IC50 [18] of the same molecule?
A: 10.1 µM

Q: What about the Activity (Rattus norvegicus [19]) of the same molecule?
A: inactive

Q: What about the Activity (Mus musculus [20]) of the same molecule?
A: inactive

Q: And the minimal effective dose (Mus musculus [21])?
A: 100 mg/kg

Q: What about the Activity (Rattus norvegicus [22]) of the same molecule?
A: inactive

Q: What about the Activity (Mus musculus [23]) of the same molecule?
A: inactive

Q: And the Activity (Mus musculus [24])?
A: inactive

Q: What about the MED (Mus musculus [25]) of the same molecule?
A: > 300 mg/kg

Q: What about the Activity (Mus musculus [26]) of the same molecule?
A: Non-toxic

Q: What about the TD50 at 1 h [27] of the same molecule?
A: > 500 mg/kg

Q: And the Activity (Mus musculus [28])?
A: inactive

Q: And the Activity (Rattus norvegicus [29])?
A: inactive

Q: And the ED50 (Mus musculus [30])?
A: 130 mg/kg

Q: What about the Activity (Rattus norvegicus [31]) of the same molecule?
A: Non-toxic

Q: And the Activity (Mus musculus [32])?
A: Non-toxic

Q: And the Activity (Mus musculus [33])?
A: inactive

Q: And the Activity (Mus musculus [34])?
A: Non-toxic

Q: And the Activity (Rattus norvegicus [35])?
A: inactive

Q: And the Activity (Mus musculus [36])?
A: Non-toxic

Q: And the Activity (Mus musculus [37])?
A: inactive

Q: What about the Activity (Mus musculus [38]) of the same molecule?
A: inactive

Q: And the ED50 (Mus musculus [39])?
A: 130 mg/kg

Q: And the MED (Mus musculus [40])?
A: > 300 mg/kg

Q: And the Activity (Mus musculus [41])?
A: Non-toxic

Q: And the Activity (Mus musculus [42])?
A: inactive

Q: And the Activity (Mus musculus [43])?
A: inactive

Q: What about the Activity (Mus musculus [44]) of the same molecule?
A: inactive

Q: What about the Activity (Mus musculus [45]) of the same molecule?
A: Non-toxic

Q: What about the Activity (Mus musculus [46]) of the same molecule?
A: Non-toxic
